Assay results: US12275729B2 (Merck Sharp & Dohme LLC, priority 2017, dated 2025)

Experiments:
[1] = target: T1, IDO1 (Homo sapiens, UniProt P14902); assay: IDO1 Cellular Assay in HeLa Cells Stimulated with IFNγ; assay type: cell-based
[2] = target: T1, IDO1; assay: IDO1 Human Whole Blood Assay; assay type: cell-based; design: Human whole blood was drawn in sodium heparin coated tubes from healthy internal donors; from tissue; host or cells: human whole blood from healthy donors, stimulated with LPS and IFNγ; settings: LPS and IFNγ stimulated
Procedure: IDO1 Human Whole Blood Assay
Compounds to be tested were serially diluted in ten 3-fold steps in DMSO starting from 10 mM. […] LPS and IFNγ was prepared in RPMI to a 10× of final conc. (1000 ng/mL), final concentration is 100 ng/mL.
Human whole blood was drawn in sodium heparin coated tubes from healthy internal donors. 240 μL of blood was transferred to each of the wells of a v-bottom 96 well plate. 30 μL of compound was transferred from intermediate dilution plate, and incubated for 15 min. 30 μL from stimulants was then transferred to blood and mixed thoroughly.
On day 2 isotope labeled standard of kynurenine and tryptophan was made in water at 1Ox concentration and 30 μL was added to the blood at […] final concentration. The assay plates were centrifuged at 300×G for 10 min with no brake to separate plasma from red blood cells. 60 μL of plasma samples was removed without disturbing red blood cells. Plasma was diluted with RPMI in 1:1 ratio and proteins were precipitated out with two volume of Acetonitrile. The plates were centrifuged at 4000×G for 60 min. 20 μL of supernatant was carefully transferred to a 384 well plate contain 40 μL of 0.1% formic acid in water and analyzed by LC/MS/MS.
LC/MS/MS analyses were performed using Thermo Fisher's LX4-TSQ Quantum Ultra system. This system consists of four Agilent binary high-performance liquid chromatography (HPLC) pumps and a TSQ Quantum Ultra triple quadrupole MS/MS instrument. For each sample, 5 μL were injected onto an Atlantis T3 column (2.1 mm×150 mm, […] particle size) from Waters. The mobile phase gradient pumped at 0.8 mL/min was used to elute the analytes from the column at 25° C. […] Mobile phase A consisted of 0.1% formic acid in water. Mobile phase B consisted of 0.1% of formic acid in acetonitrile. Data was acquired in positive mode using a HESI interface. The operational parameters for the TSQ Quantum Ultra instrument were a spray voltage of 4000 V, capillary temperature of 380° C., vaporizer temperature 400° C., shealth gas 60 arbitrary units, Aux gas 20 arbitrary units, tube lens 85 and collision gas 1.2 mTorr. […] The peak area was integrated by Xcalibur Quan software. The ratios between the kynurenine generated in the reaction and 2D6-Kynurenine spiked-in internal standard were used to generate percentage inhibition and IC50 values.

[3] = about 48 hours, read-out: Hela IC50

T1 sequence (P14902 whole entry): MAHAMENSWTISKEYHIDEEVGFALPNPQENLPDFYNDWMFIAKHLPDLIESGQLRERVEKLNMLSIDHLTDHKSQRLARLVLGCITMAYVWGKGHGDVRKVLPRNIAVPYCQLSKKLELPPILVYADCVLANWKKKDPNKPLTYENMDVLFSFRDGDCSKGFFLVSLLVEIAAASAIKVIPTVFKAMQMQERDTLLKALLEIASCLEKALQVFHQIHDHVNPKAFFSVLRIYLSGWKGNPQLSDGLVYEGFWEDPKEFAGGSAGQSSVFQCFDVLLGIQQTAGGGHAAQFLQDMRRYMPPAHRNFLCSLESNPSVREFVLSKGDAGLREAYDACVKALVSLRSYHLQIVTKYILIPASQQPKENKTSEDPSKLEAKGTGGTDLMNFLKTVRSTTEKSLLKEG

Structure (SMILES)	IC50 [1, 3] [µM]	IC50 [2] [µM]	IC50 ([1]; read-out: Hela IC50) [µM]	IC50 ([1]; value in running text, read-out: Hela IC50) [µM]	IC50 ([1]; value in running text, read-out: Hela Cell IC50) [µM]
COCCOC(=O)N1CCCc2nc(C(C)NC(=O)c3ccc(Cl)cc3)ccc21 (stereo not shown) [Example 212, 2-methoxyethyl 6-{1-[(4-chlorobenzene-1-carbonyl)amino]ethyl}-3,4-dihydro-1,5-naphthyridine-1(2H)-carboxylate]	0.003	0.035			
CC(C(=O)Nc1ccc(F)cc1)c1ccc2c(c1)CCCN2C(=O)C1CC1(F)F (stereo not shown) [Example 67, 2-[1-(2,2-difluorocyclopropane-1-carbonyl)-1,2,3,4-tetrahydroquinolin-6-yl]-N-(4-fluorophenyl)propanamide]	0.0041	0.15			
Cc1nccc(N2CCCc3nc(C(C)NC(=O)c4ccc(Cl)cc4)ccc32)n1 (stereo not shown) [Example 250, 4-chloro-N-(1-(5-(2-methylpyrimidin-4-yl)-5,6,7,8-tetrahydro-1,5-naphthyridin-2-yl)ethyl)benzamide]	0.002	0.032			
Cn1ccc(C(=O)N2CCCc3cc(C4(C(=O)Nc5ccc(F)cn5)CCC4)ccc32)n1 [Example 120, N-(5-fluoropyridin-2-yl)-1-[1-(1-methyl-1H-pyrazole-3-carbonyl)-1,2,3,4-tetrahydroquinolin-6-yl]cyclobutane-1-carboxamide]	0.0014	0.214			
CC(C(=O)Nc1ccc(Cl)cc1)c1ccc2c(c1)CCCN2C(=O)c1cccc(Cl)c1 (stereo not shown) [Example 51, 2-[1-(3-chlorobenzene-1-carbonyl)-1,2,3,4-tetrahydroquinolin-6-yl]-N-(4-chlorophenyl)propanamide]	0.002	0.096			
CC1(C(=O)N2CCCc3cc(C4(C(=O)Nc5ccc(F)cc5)CCC4)ccc32)CC1 [Example 104, N-(4-fluorophenyl)-1-[1-(1-methylcyclopropane-1-carbonyl)-1,2,3,4-tetrahydroquinolin-6-yl]cyclobutane-1-carboxamide]	0.0035	0.115			
O=C(Nc1ccc(F)cc1)C1(c2ccc3c(n2)CCCN3c2ccnc(C3CC3)n2)CCC1 [Example 401, 1-(5-(2-cyclopropylpyrimidin-4-yl)-5,6,7,8-tetrahydro-1,5-naphthyridin-2-yl)-N-(4-fluorophenyl)cyclobutane-1-carboxamide]	0.00187	0.004			
Cc1nccc(N2CCCc3nc(C4(C(=O)Nc5ccc(F)cc5)CC(F)(F)C4)ccc32)n1 [Example 420, 3,3-difluoro-N-(4-fluorophenyl)-1-(5-(2-methylpyrimidin-4-yl)-5,6,7,8-tetrahydro-1,5-naphthyridin-2-yl)cyclobutanecarboxamide]		0.012	0.00109	0.001	
CC(NC(=O)c1ccc(F)cc1)c1ccc2c(n1)CCCN2c1ccn2nccc2n1 (stereo not shown) [Example 368, 4-fluoro-N-(1-(5-(pyrazolo[1,5-a]pyrimidin-5-yl)-5,6,7,8-tetrahydro-1,5-naphthyridin-2-yl)ethyl)benzamide]		0.016	0.018		
COC(=O)N1CCCc2nc(C(C)NC(=O)c3ccc(Cl)cc3)ccc21 (stereo not shown) [Example 213, methyl 6-{1-[(4-chlorobenzene-1-carbonyl)amino]ethyl}-3,4-dihydro-1,5-naphthyridine-1(2H)-carboxylate]	0.0063	0.393			
CC(C(=O)Nc1ccc(F)cc1)c1ccc2c(n1)CCCN2C(=O)C1CCOCC1 (stereo not shown) [Example 165, N-(4-fluorophenyl)-2-[5-(oxane-4-carbonyl)-5,6,7,8-tetrahydro-1,5-naphthyridin-2-yl]propanamide]	0.0027	0.034			
CCN(CC)CCOC(=O)N1CCCc2nc(C(C)NC(=O)c3ccc(F)cc3)ccc21 (stereo not shown) [Example 324, 2-(diethylamino)ethyl 6-(1-(4-fluorobenzamido)ethyl)-3,4-dihydro-1,5-naphthyridine-1(2H)-carboxylate]		0.239	3.4		
CC(NC(=O)c1ccc(Cl)cc1)c1ccc2c(n1)CCCN2C(=O)OCC(F)(F)F (stereo not shown) [Example 310]		0.046	0.00161		
Cc1nccc(N2CCCCc3nc(C4(NC(=O)c5ccc(F)cc5)CC4)ccc32)n1 [Example 432, 4-fluoro-N-(1-(5-(2-methylpyrimidin-4-yl)-6,7,8,9-tetrahydro-5H-pyrido[3,2-b]azepin-2-yl)cyclopropyl)benzamide]		0.004			0.0033
CC(NC(=O)c1ccc(F)cc1)c1ccc2c(n1)CCCN2C(=O)c1cc(C(F)F)ccn1 (stereo not shown) [Example 279, N-(1-(5-(4-(difluoromethyl)picolinoyl)-5,6,7,8-tetrahydro-1,5-naphthyridin-2-yl)ethyl)-4-fluorobenzamide]	0.0073	0.135			
O=C(N[C@H](c1ccc2c(n1)CCCN2C(=O)C1CC1)C(F)(F)F)c1ccc(F)cc1 [Example 424, (R)—N-(1-(5-(cyclopropanecarbonyl)-5,6,7,8-tetrahydro-1,5-naphthyridin-2-yl)-2,2,2-trifluoroethyl)-4-fluorobenzamide]		0.143	0.0447		
CC(NC(=O)c1ccc(Cl)cc1)c1ccc2c(n1)CCCN2c1ccnc(C(F)(F)F)n1 (stereo not shown) [Example 345, 4-chloro-N-(1-(5-(2-(trifluoromethyl)pyrimidin-4-yl)-5,6,7,8-tetrahydro-1,5-naphthyridin-2-yl)ethyl)benzamide]		0.032	0.00172		
CC(C(=O)Nc1ccc(F)cc1)c1ccc2c(n1)CCCN2C(=O)C1CCCO1 (stereo in doubt) [Example 162, N-(4-fluorophenyl)-2-{5-[(2R)-oxolane-2-carbonyl]-5,6,7,8-tetrahydro-1,5-naphthyridin-2-yl}propanamide]	0.0027	0.029			
C[C@H](C(=O)Nc1ccc(F)cc1)c1ccc2c(c1)CCCN2C(=O)c1cccc(Cl)c1 (single isomer, unassigned) [Example 52]	0.0049	0.372			
O=C(N[C@@H](c1ccc2c(n1)CCCN2C(=O)C1CC1)C(F)(F)F)c1ccc(F)cc1 [Example 425, (S)—N-(1-(5-(cyclopropanecarbonyl)-5,6,7,8-tetrahydro-1,5-naphthyridin-2-yl)-2,2,2-trifluoroethyl)-4-fluorobenzamide]		0.029	0.235		
CC(NC(=O)c1ccc(Cl)cc1)c1ccc2c(n1)CCCN2c1cccc(C2CC2)n1 (stereo not shown) [Example 351, 4-chloro-N-(1-(5-(6-cyclopropylpyridin-2-yl)-5,6,7,8-tetrahydro-1,5-naphthyridin-2-yl)ethyl)benzamide]		0.018	0.00338		
Cc1nccc(N2CCCc3nc(C4(NC(=O)c5ccc(F)c(Br)c5)CC4)ccc32)n1 [Example 304, 3-bromo-4-fluoro-N-(1-(5-(2-methylpyrimidin-4-yl)-5,6,7,8-tetrahydro-1,5-naphthyridin-2-yl)cyclopropyl)benzamide]	0.00279	0.081			
CC(NC(=O)c1ccc(Cl)cc1)c1ccc2c(n1)CCCN2C(=O)C1CC1 (single isomer, unassigned) [Example 125, 4-chloro-N-{1-[5-(cyclopropanecarbonyl)-5,6,7,8-tetrahydro-1,5-naphthyridin-2-yl]ethyl}benzamide]	0.0083	0.289			
Cc1nccc(N2CCCc3nc(C(C)(C)C(=O)Nc4ccc(Cl)cc4)ccc32)n1 [Example 390, N-(4-chlorophenyl)-2-methyl-2-(5-(2-methylpyrimidin-4-yl)-5,6,7,8-tetrahydro-1,5-naphthyridin-2-yl)propanamide]	0.00242	0.073			
Cc1nccc(N2CCCc3nc(C4(NC(=O)c5ccc(Br)cc5)CC4)ccc32)n1 [Example 301, 4-bromo-N-(1-(5-(2-methylpyrimidin-4-yl)-5,6,7,8-tetrahydro-1,5-naphthyridin-2-yl)cyclopropyl)benzamide]	0.00169	0.021			
C[C@H](NC(=O)c1ccc(Cl)cc1)c1ccc2c(n1)OCCN2C(=O)c1cccc(Cl)c1 (single isomer, unassigned) [Example 254, 4-chloro-N-(1-(1-(3-chlorobenzoyl)-2,3-dihydro-1H-pyrido[2,3-b][1,4]oxazin-6-yl)ethyl)benzamide]	0.0037	0.263			
CC(C(=O)Nc1ccc(F)cc1)c1ccc2c(c1)CCCN2C(=O)c1cccc(Cl)c1 (racemic) [Example 50, 2-[1-(3-chlorobenzene-1-carbonyl)-1,2,3,4-tetrahydroquinolin-6-yl]-N-(4-fluorophenyl)propanamide]	0.0025	0.043			
